# Reference: patent US6750228B1, “Aromatic sulfone hydroxamic acid metalloprotease inhibitor” (priority 1997, dated 2004)
# Read-outs that look alike come from different tables or passages of the source.
# Columns and labels:
# Experiment in all cases: biochemical
# MMP-1 = target: T1, MMP-1 (Homo sapiens, UniProt P03956); settings: read-out: MMP-1 IC50
# T1 construct: made in house; host or cells: transfected HT-1080 cells (provided by Dr. Harold Welgus, Washington University)
# T1 sequence (P03956 100-469): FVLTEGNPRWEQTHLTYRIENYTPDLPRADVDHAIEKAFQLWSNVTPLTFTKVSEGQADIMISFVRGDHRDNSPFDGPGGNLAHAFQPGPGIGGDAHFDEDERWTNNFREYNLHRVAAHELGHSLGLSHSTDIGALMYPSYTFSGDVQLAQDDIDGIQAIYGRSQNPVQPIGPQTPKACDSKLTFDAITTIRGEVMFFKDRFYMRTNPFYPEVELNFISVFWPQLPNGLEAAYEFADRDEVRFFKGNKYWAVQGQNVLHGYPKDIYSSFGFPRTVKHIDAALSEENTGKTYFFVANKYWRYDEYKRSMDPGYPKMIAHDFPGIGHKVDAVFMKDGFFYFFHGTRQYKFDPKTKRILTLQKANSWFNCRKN
# Procedure, shortened: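 APMA- or trypsin-activated enzymes were preincubated with inhibitor for 5 min at room temperature, then the fluorogenic substrate MCA-Pro-Leu-Gly-Leu-Dpa-Ala-Arg-NH2 was added to a final 4 μM.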
# MMP-13 = target: T2, MMP-13 (Homo sapiens, UniProt P45452); settings: recombinant human MMP-13, MCA peptide substrate 4 μM, pH 7.5, room temperature; read-out: MMP-13 IC50
# T2 construct: made in house; host or cells: baculovirus / insect cells
# Procedure, shortened: (§1)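 Assay buffer 100 mM Tris-HCl, 100 mM NaCl, 10 mM CaCl2, pH 7.5. Activated MMP + inhibitor, 5 min RT; then methoxycoumarin peptide substrate, 4 μM final. Readout fluorescence; IC50 calculated.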
# MMP-2 = target: T3, MMP-2 (Homo sapiens, UniProt P08253); settings: recombinant human MMP-2, MCA peptide substrate 4 μM, pH 7.5, room temperature; read-out: MMP-2 IC50
# T3 construct: made in house; provided by Dr. Gregory Goldberg, Washington University
# T3 sequence (P08253 110-660): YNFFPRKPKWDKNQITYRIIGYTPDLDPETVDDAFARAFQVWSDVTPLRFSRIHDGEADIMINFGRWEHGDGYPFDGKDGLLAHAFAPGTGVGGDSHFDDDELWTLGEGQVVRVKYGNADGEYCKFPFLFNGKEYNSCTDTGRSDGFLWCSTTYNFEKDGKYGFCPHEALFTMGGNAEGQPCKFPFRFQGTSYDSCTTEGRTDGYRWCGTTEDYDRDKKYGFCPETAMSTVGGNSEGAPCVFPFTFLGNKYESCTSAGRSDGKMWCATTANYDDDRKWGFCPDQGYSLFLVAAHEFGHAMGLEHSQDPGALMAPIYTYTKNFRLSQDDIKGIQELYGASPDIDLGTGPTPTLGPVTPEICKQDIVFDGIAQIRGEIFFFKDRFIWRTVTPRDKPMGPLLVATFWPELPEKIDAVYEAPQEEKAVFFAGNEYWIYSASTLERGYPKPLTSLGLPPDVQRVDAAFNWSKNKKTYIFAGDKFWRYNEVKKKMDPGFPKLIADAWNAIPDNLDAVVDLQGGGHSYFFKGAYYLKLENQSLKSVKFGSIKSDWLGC
# Procedure, shortened: as §1
# [1] = recombinant human MMP-1, MCA peptide substrate 4 μM, pH 7.5, room temperature
SMILES,IC50 (MMP-1; [1]) [nM],IC50 (MMP-13) [nM],IC50 (MMP-2) [nM],IC50 (MMP-1) [nM]
CC1CC(C)CN(C(=O)C2CCN(c3ccc(S(=O)(=O)C4(C(=O)NO)CCN(C(=O)CNCC5CC5)CC4)cc3)CC2)C1 (stereo not drawn) [Example 293],> 10000,63.1,> 10000,–
CC1CC(C)CN(C(=O)C2CCN(c3ccc(S(=O)(=O)C4(C(=O)NO)CCN(C(=O)CN5CCC(O)CC5)CC4)cc3)CC2)C1 (stereo not drawn) [Example 304],> 10000,30.6,7000,–
O=C(Nc1c(F)cccc1F)N1CCC(C(=O)NO)(S(=O)(=O)c2ccc(Oc3ccc(OC(F)(F)F)cc3)cc2)CC1 [Example 361],5000,0.5,< 0.1,–
O=C(c1ccc2c(c1)OCO2)C1CCN(c2ccc(S(=O)(=O)C3(C(=O)NO)CCOCC3)cc2)CC1 [Example 796],> 10000,5.7,130,–
O=C(NO)C1(S(=O)(=O)c2ccc(N3CCCCCC3)cc2)CCOCC1 [Example 212],> 10000,160,240,–
CCc1ccc(C(=O)C2CCN(c3ccc(S(=O)(=O)C4(C(=O)NO)CCOCC4)cc3)CC2)cc1 [Example 733],> 10000,1.6,270,–
CCCC(=O)N1CCN(c2ccc(S(=O)(=O)C3(C(=O)NO)CCOCC3)cc2)CC1 [Example 590],> 10000,121,80,–
O=C(c1cccc(C(F)(F)F)c1)C1CCN(c2ccc(S(=O)(=O)C3(C(=O)NO)CCOCC3)cc2)CC1 [Example 727],> 10000,34.9,240,–
O=C(NO)C1(S(=O)(=O)c2ccc(N3CCN(S(=O)(=O)c4cccs4)CC3)cc2)CCOCC1 [Example 685],> 10000,3,34.7,–
O=C(NO)C1(S(=O)(=O)c2ccc(N3CCC(OCc4ccc(OC(F)(F)F)cc4)CC3)cc2)CCN(C2CC2)CC1 [Example 418],> 10000,7,1400,–
CC1CC(C)CN(C(=O)C2CCN(c3ccc(S(=O)(=O)C4(C(=O)NO)CCOCC4)cc3)CC2)C1 (stereo not drawn) [Example 54],> 10000,40,5700,–
CC(C)N1CCC(C(=O)NO)(S(=O)(=O)c2ccc(N3CCC(SCc4ccc(OC(F)(F)F)cc4)CC3)cc2)CC1 [Example 462],> 10000,2.9,80,–
O=C(c1cccc(F)c1)C1CCN(c2ccc(S(=O)(=O)C3(C(=O)NO)CCOCC3)cc2)CC1 [Example 728],> 10000,9.4,106,–
CC(=O)Nc1ccc(Oc2ccc(S(=O)(=O)C3(C(=O)NO)CCN(C4CC4)CC3)cc2)cc1 [Example 378],200,1.7,0.3,–
O=C(NO)C1(S(=O)(=O)c2ccc(N3CC=CCC3)cc2)CCOCC1 [Example 210],4000,5.4,4.5,–
CC1CCCC(S(=O)(=O)C2CCN(c3ccc(S(=O)(=O)C4(C(=O)NO)CCOCC4)cc3)CC2)C1 (stereo not drawn) [Example 822],> 10000,10,210,–
CSc1nccc(N2CCC(C(=O)NO)(S(=O)(=O)c3ccc(Oc4ccc(OC(F)(F)F)cc4)cc3)CC2)n1 [Example 410],> 10000,0.6,0.25,–
CN(C)S(=O)(=O)N(C)C1CCN(c2ccc(S(=O)(=O)C3(C(=O)NO)CCOCC3)cc2)CC1 [Example 832],> 10000,18.1,2000,–
COc1cc(OC)cc(OC2CCN(c3ccc(S(=O)(=O)C4(C(=O)NO)CCOCC4)cc3)CC2)c1 [Example 639],9400,1.5,1.5,–
O=C(NO)C1(S(=O)(=O)c2ccc(N3CCC(c4ccccc4C(F)(F)F)CC3)cc2)CCOCC1 [Example 207],> 10000,28.8,900,–

# More lines, now with the values ahead:
IC50 (MMP-1; [1]) [nM],IC50 (MMP-13) [nM],IC50 (MMP-2) [nM],IC50 (MMP-1) [nM],SMILES
> 10000,10.6,2000,–,O=C(NO)C1(S(=O)(=O)c2ccc(N3CCC(OCc4ccc(COCC5CCCC5)cc4)CC3)cc2)CCOCC1 [Example 605]
> 10000,2.7,18.6,–,O=C(NO)C1(S(=O)(=O)c2ccc(N3CCC(Oc4ccc([N+](=O)[O-])cc4)CC3)cc2)CCOCC1 [Example 546]
> 10000,20,2900,–,O=C(Nc1ccccc1OC(F)(F)F)C1CCN(c2ccc(S(=O)(=O)C3(C(=O)NO)CCOCC3)cc2)CC1 [Example 63]
> 10000,10.6,43.5,–,CCCC(=O)C1CCN(c2ccc(S(=O)(=O)C3(C(=O)NO)CCOCC3)cc2)CC1 [Example 799]
> 10000,0.5,0.2,–,O=C(CN1CCOCC1)N1CCC(C(=O)NO)(S(=O)(=O)c2ccc(Oc3ccc(C(F)(F)F)cc3)cc2)CC1 [Example 319]
> 10000,11.7,730,–,CN(C)c1ccc(NC(=O)C2CCN(c3ccc(S(=O)(=O)C4(C(=O)NO)CCOCC4)cc3)CC2)cc1 [Example 78]
> 10000,0.3,< 0.1,–,O=C(CCCCNCc1ccncc1)N1CCC(C(=O)NO)(S(=O)(=O)c2ccc(Oc3ccc(C(F)(F)F)cc3)cc2)CC1 [Example 340]
> 10000,15.8,210,–,O=C(NO)C1(S(=O)(=O)c2ccc(N3CCCC(COCc4cccc(C(F)(F)F)c4)C3)cc2)CCOCC1 (stereo not drawn) [Example 507]
> 10000,1.7,0.8,–,O=C(CCCCN1CCNCC1)N1CCC(C(=O)NO)(S(=O)(=O)c2ccc(Oc3ccc(C(F)(F)F)cc3)cc2)CC1 [Example 343]
> 10000,5,87.7,–,O=C(NO)C1(S(=O)(=O)c2ccc(N3CCC(Oc4ccc(C(F)(F)F)cc4)CC3)cc2)CCOCC1 [Example 567]
3000,0.2,< 0.1,–,O=C(NO)C1(S(=O)(=O)c2ccc(Oc3ccc(OC(F)(F)F)cc3)cc2)CCN(C(=S)NCCN2CCCCC2)CC1 [Example 200]
–,8,27,> 10000,O=C(Nc1ccccc1)OC1CCN(c2ccc(S(=O)(=O)C3(C(=O)NO)CCOCC3)cc2)CC1 [Example 515]
> 10000,11.4,350,–,CCCCOc1ccc(NC(=O)OC2CCN(c3ccc(S(=O)(=O)C4(C(=O)NO)CCOCC4)cc3)CC2)cc1 [Example 518]
> 10000,2.9,220,–,O=C(NO)C1(S(=O)(=O)c2ccc(N3CCC(OCc4ccc(COCC(F)(F)F)cc4)CC3)cc2)CCOCC1 [Example 607]
> 10000,2400,> 10000,–,CC(=O)c1ccc(OC2CCN(c3ccc(S(=O)(=O)C4(C(=O)NO)CCOCC4)cc3)CC2)c(Cl)c1 [Example 471]
> 10000,10,130,–,O=C(NO)C1(S(=O)(=O)c2ccc(N3CCN(S(=O)(=O)c4cccc5nsnc45)CC3)cc2)CCOCC1 [Example 691]
480,15.8,13.8,–,O=C(NO)C1(S(=O)(=O)c2ccc(Oc3cccnc3)cc2)CCSCC1 [Example 149]
> 10000,6.3,220,–,O=C(NO)C1(S(=O)(=O)c2ccc(N3CCCC(COCc4ccccc4)C3)cc2)CCOCC1 (stereo not drawn) [Example 504]
> 10000,3,48.5,–,O=C(NO)C1(S(=O)(=O)c2ccc(N3CCC(OCc4ccccc4)CC3)cc2)CCOCC1 [Example 165]
> 10000,2,22.7,–,O=C(NO)C1(S(=O)(=O)c2ccc(N3CCN(c4ccc(OC(F)(F)F)cc4)CC3)cc2)CCOCC1 [Example 695]
> 10000,9,600,–,CC(C)CCOCc1ccc(COC2CCN(c3ccc(S(=O)(=O)C4(C(=O)NO)CCOCC4)cc3)CC2)cc1 [Example 600]
